Assay results reported in patent US20070238700A1, “N-PHENYL-1,1,1-TRIFLUOROMETHANESULFONAMIDE HYDRAZONE DERIVATIVE COMPOUNDS AND THEIR USAGE IN CONTROLLING PARASITES” (priority 2006, published 2007).

Experiments:
Haemonchus contortus = Haemonchus contortus larvacidal assay (larval development, LD99)
Description: a) Haemonchus Contortus Larvacidal Assay:
The effect of compounds on larval development was determined in the assay described by Gill et al., (1995, International Journal of Parasitology 25:463-470). Briefly, in this assay, nematode eggs were applied to the surface of an agar matrix containing the test compound and then allowed to develop through to the L3, infective stage (6 days). The wells for each dilution of every compound (from highest to lowest concentration) were inspected to determine the well number corresponding to the lowest concentration at which development was inhibited in 99% of the nematode larvae present (LD99). Because well numbers correspond to a two-fold serial dilution of each compound, a titre (dilution factor) is generated as 2n^−1, where n is the well number. By dividing the highest concentration tested by the titre an LD99 value can be obtained, representing the concentration required to inhibit development in 99% of the nematode larvae present. The compounds supplied as solid and viscous liquids were dissolved in DMSO. Twelve serial one-half dilutions in DMSO solution were prepared from the stock solution, each of which was then diluted ⅕ with water. Aliquots (10 μl) of each dilution were transferred to the bioassay plates to give a final concentration range of 0.024 to 50 μg/ml.

Ctenocephalides felis = settings: 8 h; data from laboratory 2
Method in brief: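 Adult cat fleas (3–7 days post-emergence), 15 per flask in ≥4 replicates, exposed to a dried acetone residue at 1.26 μg/cm^2 on a Coatasil-treated glass flask base. Held at 25±1° C, 75±5% humidity; mortality (immobile or unable to right) scored at 8, 24 and/or 48 h.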

melting point | SMILES | H. contortus LD99 (Haemonchus contortus) | C. felis Mortality (%) 8 h (Ctenocephalides felis)
196 to 197 °C | Cn1ccc(-c2cc(Cl)ccc2NS(=O)(=O)C(F)(F)F)n1 | – | –
– | CC(=NNc1ccc(C(F)(F)F)cc1)c1cc(Cl)ccc1NS(=O)(=O)C(F)(F)F [Compound 1, N-[2-[1-(4-trifluoro-methylphenyl)hydrazono]ethyl-4-chlorophenyl]-trifluoromethanesulfonamide] | 3.8 ppm | –
– | CCC(=NNc1ccc(C(F)(F)F)cc1)c1cc(Cl)ccc1NS(=O)(=O)C(F)(F)F [Compound 2] | 6 ppm | –
– | CC(=NNc1cccc(Cl)c1Cl)c1cc(Cl)ccc1NS(=O)(=O)C(F)(F)F [Compound 3] | 1.5 ppm | –
– | CC(=NNc1ccc(Cl)cc1Cl)c1cc(Cl)ccc1NS(=O)(=O)C(F)(F)F [Compound 4] | 0.63 ppm | –
– | CC(=NNc1ccc(Cl)c(Cl)c1)c1cc(Cl)ccc1NS(=O)(=O)C(F)(F)F [Compound 5] | 3.3 ppm | –
– | CC(=NNc1cc(Cl)cc(Cl)c1)c1cc(Cl)ccc1NS(=O)(=O)C(F)(F)F [Compound 6] | 3.5 ppm | –
– | CC(=NNc1cc(Cl)ccc1Cl)c1cc(Cl)ccc1NS(=O)(=O)C(F)(F)F [Compound 7] | 0.94 ppm | –
– | CC(=NNc1ccc(Br)cc1)c1cc(Cl)ccc1NS(=O)(=O)C(F)(F)F [Compound 8] | 7.5 ppm | 12^B %
– | COc1ccc(NN=C(C)c2cc(Cl)ccc2NS(=O)(=O)C(F)(F)F)cc1 [Compound 10] | >15 ppm | –
– | CC(=NNC(=O)c1ccccc1)c1cc(Cl)ccc1NS(=O)(=O)C(F)(F)F [Compound 11] | >15 ppm | –
– | CCC(=NNc1cccc(Cl)c1Cl)c1cc(Cl)ccc1NS(=O)(=O)C(F)(F)F [Compound 13, N-[2-[1-(2,3-dichlorophenyl)hydrazono]propyl-4-chlorophenyl]-trifluoromethanesulfonamide] | 3 ppm | –
– | CCC(=NNc1ccc(Cl)c(Cl)c1)c1cc(Cl)ccc1NS(=O)(=O)C(F)(F)F [Compound 14] | 3.8 ppm | –
– | CCC(=NNc1ccc(Br)cc1)c1cc(Cl)ccc1NS(=O)(=O)C(F)(F)F [Compound 15] | 3.8 ppm | –
– | CCC(=NNc1cc(Cl)cc(Cl)c1)c1cc(Cl)ccc1NS(=O)(=O)C(F)(F)F [Compound 16] | 2.8 ppm | –
– | CCC(=NNc1ccc(Cl)cc1Cl)c1cc(Cl)ccc1NS(=O)(=O)C(F)(F)F [Compound 18] | 0.47 ppm | 5^B %
– | CCC(=NNc1cc(Cl)ccc1Cl)c1cc(Cl)ccc1NS(=O)(=O)C(F)(F)F [Compound 19] | 0.94 ppm | –
